# Assay results from US12337010B2, “Compositions and methods of treatment using nicotinamide mononucleotide” (Washington University, priority 2017, dated 2025).
# Key:
# [1] = tested on: Slc12a8 gene; experiment: Microarray gene expression profiling of FK866-treated primary cultures; assay type: cell-based, mouse
# Procedure: Microarray Analysis. Total RNA was isolated from primary hepatocytes, pancreatic islets, and hippocampal neurospheres, treated with 0.1% DMSO (control) or FK866 (200 nM for primary hepatocytes, and 10 nM for pancreatic islets and hippocampal neurospheres). To determine transcriptional changes induced by FK866 treatment, microarray analyses were conducted using the Illumina Mouse Ref 8 whole genome microarrays (version 2). […] All data were analyzed by the R statistical software package.
# Slc12a8 was identified in the section of the Venn diagram in FIG. 1 indicated by an arrow. The Slc12a8 gene belongs to the SLC12 gene family of the electroneutral cation-chloride-coupled co-transporters, and the function of the protein encoded by this gene remains unknown (Hebert, S. C., et al., Pflugers Arch. 447, 580-593, 2004).
# [2] = tested on: Slc12a8 mRNA expression; experiment: Slc12a8 mRNA expression by quantitative RT-PCR in cells and ex vivo small intestine explants; assay type: cell-based, mouse; conditions: FK866 alone; primary hepatocytes, NIH3T3 fibroblasts (24 h), jejunum and ileum explants (4 h)
# Procedure: Cell culture and ex vivo small intestine explant culture. […] For Slc12a8 mRNA expression analysis, 2.5×10^5 cells per well were incubated in 6-well plates with DMEM with 1% FBS containing 0.1% DMSO or 100 nM FK866 or 100 nM FK866 plus 100 μM NMN for 24 h. Small intestines from 3-month old B6 male mice were cut into three segments with duodenum/jejunum/ileum length ratios of 1:3:2 (Wang, H. H., et al., Hepatology 45, 998-1006, 2007). […] Cellular and tissue RNA samples were analyzed by quantitative RT-PCR, as described previously (Stein, L. R. & Imai, S., EMBO J., 33, 1321-1340, 2014).
# The amounts of adenosine produced were determined by HPLC. […] Silencing efficiencies were evaluated by quantitative RT-PCR.
# FIG. 2 illustrates that Slc12a8 is highly expressed in the small intestine and pancreas and moderately in the liver and white adipose tissue of B6 male mice at 3 months of age (n=3 mice). […] Cells were treated with these compounds for 24 h (n=4 mice for hepatocytes treated with DMSO and FK866, and n=3 mice for hepatocytes treated with FK866 and NMN; n=6 for NIH3T3 cells; analyzed using ANOVA with Tukey's test). FIG. 5 illustrates surface and intracellular Slc12a8 protein expression levels were measured by flow cytometry analysis in NIH3T3 cells treated with FK866 or FK866 plus NMN for 48h. […]
# [3] = molecular target: T1, Slc12a8 (Mus musculus, UniProt Q8VI23); experiment: 3H-NMN uptake and displacement in Slc12a8-OE proteoliposomes; assay type: biochemical; conditions: for displacement of 3H-NMN: 150 μM cold compound, 150 nM 3H-NMN, 2 min
# T1 construct: NIH3T3 cells were transfected with 5 μg of pCXN2 carrying the full-length Slc12a8 cDNA (Slc12a8-OE); expressed in transfected cells
# T1 sequence (Q8VI23 1-705): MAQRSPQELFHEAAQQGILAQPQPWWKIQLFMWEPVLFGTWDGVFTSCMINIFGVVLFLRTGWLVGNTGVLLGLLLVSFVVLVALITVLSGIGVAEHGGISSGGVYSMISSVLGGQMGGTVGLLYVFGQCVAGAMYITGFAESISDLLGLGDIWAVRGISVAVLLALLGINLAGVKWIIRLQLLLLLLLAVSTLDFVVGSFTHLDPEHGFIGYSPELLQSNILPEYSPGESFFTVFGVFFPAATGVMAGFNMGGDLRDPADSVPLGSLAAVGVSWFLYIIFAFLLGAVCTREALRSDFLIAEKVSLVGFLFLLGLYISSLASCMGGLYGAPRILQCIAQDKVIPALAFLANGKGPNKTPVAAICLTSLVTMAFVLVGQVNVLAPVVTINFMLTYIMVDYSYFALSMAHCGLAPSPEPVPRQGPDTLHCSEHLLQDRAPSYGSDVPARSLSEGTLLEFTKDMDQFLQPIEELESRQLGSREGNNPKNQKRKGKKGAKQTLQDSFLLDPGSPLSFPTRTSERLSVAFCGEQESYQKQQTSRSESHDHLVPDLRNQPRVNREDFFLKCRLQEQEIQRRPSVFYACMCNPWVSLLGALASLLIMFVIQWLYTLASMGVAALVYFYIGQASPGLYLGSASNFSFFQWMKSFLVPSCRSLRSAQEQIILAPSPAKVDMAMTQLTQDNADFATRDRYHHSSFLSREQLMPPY
# Procedure: Proteoliposome experiments. Proteoliposome preparation was carried out as previously described (Bruzzone, S., et al., FASEB J., 15, 10-12, 2001). Briefly, 2×10^7 control or Slc12a8-OE NIH3T3 cells were resuspended in 1 ml of lysis buffer (10 mM Tris-HCl, pH 8.3, 150 mM NaCl, 0.3 M sucrose, protease inhibitor cocktail) and disrupted using a homogenizer. The lysate was centrifuged for 10 min at 3,000×g, and the supernatant was collected and centrifuged for 15 min at 100,000×g. The membrane proteins were solubilized with buffer A (10 mM Tris-HCl, pH 8.3, containing 150 mM NaCl and 0.5% n-octyl β-glucopyranoside). Separately, total lipids were extracted from hemoglobin-free erythrocyte membranes (ghosts) as described previously (Franco, L., et al., FASEB J., 12, 1507-1520, 1998). Total lipids from human erythrocyte membranes (3 mg) were dried and resuspended with 600 μl of solubilized membrane proteins (at approximately 0.7 mg/ml protein concentration). The resulting emulsions were sonicated in ice for 1 min and dialyzed against 5 liters of buffer A without n-octyl-β-glucopyranoside (dialysis buffer) for 24 h at 4° C. Proteoliposomes were recovered, centrifuged for 15 min at 100,000×g, resuspended in 900 μl dialysis buffer and passed 5 times through a 30-gauge needle.
# To examine the Na+-dependency of Slc12a8, NaCl was replaced with 150 mM LiCl. All steps were carried out at 4° C. Proteoliposomes (30 μl in triplicate for each condition) were incubated for 2, 5 or 10 min at 25° C. in the presence of […] 3H-β-NMN (specific activity, 9.1 Ci/mmole) with or without label-free nucleotides (NMN, NR, NAD, AMP; NAM or NaMN). At the end of incubations, samples were filtered on a glass fiber paper. Filters were washed with 3 ml of dialysis buffer, dried, and counted for radioactivity.
# Proteoliposomes were produced by combining the membrane fractions of Slc12a8-OE or control NIH3T3 cells with the phospholipid bilayers derived from deproteinized erythrocyte plasma membrane as described supra using 22 nM, ^3H-NMN at 25° C. in proteoliposomes produced from plasma membrane fractions of Slc12a8-OE and control NIH3T3 cells in transport buffer (n=3; analyzed by one-way ANOVA with Sidak's multiple comparisons test).
# In order to determine substrate specificity of Slc12a8, these Slc12a8-OE proteoliposomes were used for displacement experiments with ^3H-NMN and various cold NAD+-related compounds. Uptake of ^3H-NMN (150 nM, 25° C.) was measured at 2 min in Slc12a8-OE proteoliposomes in the presence of 150 μM competing cold compounds (NMN, NR, NAD, AMP, NaMN, and nicotinamide) in transport buffer (n=3, analyzed by ANOVA with Dunnett's test). […] Data are shown as percentages of ^3H-NMN uptake (n=3; IC50 was calculated by non-linear regression analysis).
# In these experiments, the sodium ion dependency of Slc12a8 for NMN transport was evaluated using the proteoliposome system.
# [4] = molecular target: T1, Slc12a8; experiment: Radiolabeled NMN uptake in Slc12a8-OE and control NIH3T3 cells; assay type: cell-based; conditions: 25 μM, 37° C., 3 and 5 min time points, Slc12a8-OE cells compared to control cells
# Procedure: NMN uptake analyses with radiolabeled NMN. Control and Slc12a8-OE NIH3T3 cells were harvested by centrifugation (400×g, 5 min), washed once in HBSS, and incubated at 37° C. in HBSS [pH 7.5] (5×10^6 cells/ml) containing 100 nM 3H-β-Nicotinamide mononucleotide (9 Ci/mmol; Moravek Biochemicals, CA) and unlabeled NMN to make the final concentration 25 μM. At the designated time points (1, 3, 5 and 10 minutes), aliquots of the cells (100 μl) were collected and placed in 1.5-ml microcentrifuge tubes containing silicone-mineral oil (density, 1.015; Sigma-Aldrich) on the top of 2 M potassium hydroxide solution, followed by centrifugation at 16,000×g for 30s. Cells were separated from the buffer and pelleted through the silicone-mineral oil layer. The radioactivity in these cell pellets was determined by a liquid scintillation counter. For calculating Km and Vmax, the same conditions were used as described above, but with various total concentrations of NMN, ranging from 1 μM to 100 μM. At the 4-min time point, 100 μl of cell suspension was collected and pelleted in the same way described above. The radioactivity in cell pellets was determined by a liquid scintillation counter. The radioactivity measured in control NIH3T3 cells was subtracted to calculate Slc12a8-specific NMN uptake in Slc12a8-OE NIH3T3 cells.
# Uptake of NMN was measured as described in methods under “NMN uptake analyses with radiolabeled NMN” using 25 μM ^3H-NMN at 37° C. in control and Slc12a8-OE NIH3T3 cells over 10 min in Hanks' buffer [ph7.5] with Mg2+ and Ca2+ (n=12; analyzed by ANOVA with Sidak's test). […] This Km is qualitatively consistent with a detected range of NMN concentrations in mouse plasma and erythrocytes (Revollo, J. R. et al., Cell Metab., 6, 363-375, 2007; Ramsey, K. M., et al., Science, 324, 651-654, 2009; Yamada, K., et al., Anal. Biochem., 352, 282-285, 2006).
molecule,measurement,setting,value
O=C(/C=C/c1cccnc1)NCCCCC1CCN(C(=O)c2ccccc2)CC1 [FK866],Slc12a8 Z ratio,"[1]; hippocampal neurospheres, 10 nM FK866 vs 0.1% DMSO",4.91
same,Slc12a8 Z ratio,"[1]; pancreatic islets, 10 nM FK866 vs 0.1% DMSO",1.69
same,Slc12a8 Z ratio,"[1]; primary hepatocytes, 200 nM FK866 vs 0.1% DMSO",2.06
same,Slc12a8 expression,[2],induced significantly
"Nc1ncnc2c1ncn2[C@@H]1O[C@H](COP(=O)(O)O)[C@@H](O)[C@H]1O [AMP, adenosine monophosphate]",displacement of 3H-NMN,[3]; 25° C.,very low or negligible displacement
3H-β-Nicotinamide mononucleotide [^3H-NMN],uptake of 3H-NMN,[4],significantly enhanced
same,3H-NMN incorporation,"[3]; 22 nM, 25° C., within 2 min, Slc12a8-OE-derived vs control-derived proteoliposomes",significantly higher levels
NC(=O)c1ccc[n+]([C@@H]2O[C@H](COP(=O)([O-])OP(=O)(O)OC[C@H]3O[C@@H](n4cnc5c(N)ncnc54)[C@H](O)[C@@H]3O)[C@@H](O)[C@H]2O)c1 [NAD+],displacement of 3H-NMN,[3]; 25° C.,very low or negligible displacement
"NC(=O)c1ccc[n+]([C@@H]2O[C@H](CO)[C@@H](O)[C@H]2O)c1 [NR, nicotinamide riboside]",displacement of 3H-NMN,[3]; 25° C.,~70%
same,IC50,[3]; Slc12a8-OE proteoliposome system,77.4 ± 10.8 µM
"O=C(O)c1cccnc1 [NA, nicotinic acid]",effect on uptake of 3H-NMN,[3]; Slc12a8-overexpressing proteoliposomes,able to enhance the uptake
NC(=O)c1cccnc1 [nicotinamide],displacement of 3H-NMN,[3]; 25° C.,very low or negligible displacement
"O=C(O)c1ccc[n+]([C@@H]2O[C@H](COP(=O)(O)O)[C@@H](O)[C@H]2O)c1 [NaMN, nicotinic acid mononucleotide]",displacement of 3H-NMN,[3]; 25° C.,very low or negligible displacement
